Consider two compounds from PMC4620497 (Scientific Reports, 2015).

SMILES strings stand for the structures. Some results are limits rather than exact numbers.

One data set deals with T1, PAK4 (Homo sapiens, UniProt O96013).
T1 construct: DNA tag (qPCR read-out); purchased Ambit Biosciences (KINOMEscan service)
Further details: method as in earlier work. The conditions noted are these: Table S1; cited from earlier work.

In another data set the target is T2, TRKA (Homo sapiens, UniProt P04629).
T2 construct: purchased DiscoveRx KINOMEscan (Ambit Biosciences)
Description: KINOMEscan panel screen. Format: binding. The conditions noted are these: read-out: Percent Control(%).

The target in the next data set is T3, PRKR (Homo sapiens, UniProt P19525).
T3 construct: purchased DiscoveRx KINOMEscan (Ambit Biosciences)
Description: KINOMEscan panel screen. It is filed as binding. The conditions noted are these: read-out: Percent Control(%).

In the next data set the target is T4, PDGFRα (Homo sapiens, UniProt P16234).
T4 construct: purchased Ambit Biosciences (KINOMEscan)
T4 sequence (P16234 24-1089): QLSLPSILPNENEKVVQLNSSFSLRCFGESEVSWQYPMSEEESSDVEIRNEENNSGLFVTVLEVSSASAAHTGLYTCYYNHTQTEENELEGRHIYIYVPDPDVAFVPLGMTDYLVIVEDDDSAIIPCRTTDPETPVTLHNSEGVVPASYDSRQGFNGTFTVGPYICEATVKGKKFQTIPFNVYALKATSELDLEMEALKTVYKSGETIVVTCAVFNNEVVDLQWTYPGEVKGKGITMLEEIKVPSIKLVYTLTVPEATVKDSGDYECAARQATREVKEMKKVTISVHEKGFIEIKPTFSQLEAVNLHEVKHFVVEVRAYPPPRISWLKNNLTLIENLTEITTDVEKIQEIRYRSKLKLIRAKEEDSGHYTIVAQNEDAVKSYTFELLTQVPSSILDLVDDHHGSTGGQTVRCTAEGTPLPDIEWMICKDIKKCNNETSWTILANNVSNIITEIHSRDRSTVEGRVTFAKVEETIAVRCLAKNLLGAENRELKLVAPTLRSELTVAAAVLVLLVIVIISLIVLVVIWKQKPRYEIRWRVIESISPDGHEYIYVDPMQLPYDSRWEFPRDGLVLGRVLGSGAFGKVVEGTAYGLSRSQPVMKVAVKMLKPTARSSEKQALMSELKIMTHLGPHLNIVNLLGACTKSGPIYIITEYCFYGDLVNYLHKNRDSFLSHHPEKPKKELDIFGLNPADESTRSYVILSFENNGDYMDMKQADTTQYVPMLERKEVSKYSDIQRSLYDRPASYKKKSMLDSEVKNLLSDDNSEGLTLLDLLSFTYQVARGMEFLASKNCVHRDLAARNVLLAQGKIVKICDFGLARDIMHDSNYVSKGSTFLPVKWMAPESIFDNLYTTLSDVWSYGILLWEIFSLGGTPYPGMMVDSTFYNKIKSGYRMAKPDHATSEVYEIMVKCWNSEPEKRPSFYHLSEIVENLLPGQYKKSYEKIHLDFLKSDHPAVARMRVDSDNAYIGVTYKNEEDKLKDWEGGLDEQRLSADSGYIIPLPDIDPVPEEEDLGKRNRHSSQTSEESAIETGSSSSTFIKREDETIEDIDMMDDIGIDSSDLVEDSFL
Description: KINOMEscan kinase binding assay (Kd).

The next data set concerns the target BTK (Homo sapiens, UniProt Q06187). Briefly: KINOMEscan kinase binding assay (Kd).
The target in the next data set is T5, CDK11 (Homo sapiens, UniProt Q9BWU1).
T5 construct: purchased DiscoveRx KINOMEscan (Ambit Biosciences)
Description: KINOMEscan panel screen. Format: binding. The conditions noted are these: read-out: Percent Control(%).

A further data set has as its target T6, BUB1 (Homo sapiens, UniProt O43683).
T6 construct: purchased DiscoveRx KINOMEscan (Ambit Biosciences)
Briefly: KINOMEscan panel screen. It is filed as binding. Conditions: read-out: Percent Control(%).

A further data set deals with T7, PIK3CG (Homo sapiens, UniProt P48736).
T7 construct: purchased DiscoveRx KINOMEscan (Ambit Biosciences)
Briefly: KINOMEscan panel screen. It is filed as binding. Conditions: read-out: Percent Control(%).

The target of the next data set is T8, EPHB6 (Homo sapiens, UniProt O15197).
T8 construct: purchased DiscoveRx KINOMEscan (Ambit Biosciences)
T8 sequence (O15197 32-1021): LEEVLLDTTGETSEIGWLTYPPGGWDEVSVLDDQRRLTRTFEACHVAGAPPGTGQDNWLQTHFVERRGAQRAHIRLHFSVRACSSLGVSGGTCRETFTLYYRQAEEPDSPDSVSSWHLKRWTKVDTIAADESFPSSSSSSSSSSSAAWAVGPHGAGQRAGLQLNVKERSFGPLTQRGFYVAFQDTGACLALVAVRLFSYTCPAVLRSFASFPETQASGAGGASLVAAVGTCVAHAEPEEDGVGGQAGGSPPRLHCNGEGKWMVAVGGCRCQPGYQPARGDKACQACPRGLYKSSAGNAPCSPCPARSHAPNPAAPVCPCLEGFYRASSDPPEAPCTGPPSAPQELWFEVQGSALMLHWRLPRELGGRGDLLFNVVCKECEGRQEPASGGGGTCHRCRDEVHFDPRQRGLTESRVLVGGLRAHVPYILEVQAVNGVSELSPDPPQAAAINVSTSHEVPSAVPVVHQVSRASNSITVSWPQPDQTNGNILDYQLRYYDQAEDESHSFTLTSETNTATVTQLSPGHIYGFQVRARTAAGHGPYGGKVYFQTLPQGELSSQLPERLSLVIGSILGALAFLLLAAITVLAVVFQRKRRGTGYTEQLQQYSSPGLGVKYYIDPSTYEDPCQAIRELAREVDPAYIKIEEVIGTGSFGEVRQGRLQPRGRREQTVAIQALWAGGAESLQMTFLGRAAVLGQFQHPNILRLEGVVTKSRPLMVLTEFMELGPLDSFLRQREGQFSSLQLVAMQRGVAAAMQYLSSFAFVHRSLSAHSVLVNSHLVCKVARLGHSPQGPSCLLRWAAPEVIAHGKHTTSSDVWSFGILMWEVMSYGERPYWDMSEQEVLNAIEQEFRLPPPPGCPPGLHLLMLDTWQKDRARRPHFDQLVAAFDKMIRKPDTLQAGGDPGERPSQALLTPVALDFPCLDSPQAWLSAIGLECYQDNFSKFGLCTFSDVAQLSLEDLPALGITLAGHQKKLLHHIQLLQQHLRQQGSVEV
Description: KINOMEscan panel screen. It is filed as binding. Conditions: read-out: Percent Control(%).

The next data set concerns the target T9, ARK5 (Homo sapiens, UniProt O60285).
T9 construct: purchased DiscoveRx KINOMEscan (Ambit Biosciences)
Briefly: KINOMEscan panel screen. It is filed as binding. Conditions: read-out: Percent Control(%).

In a further data set the target is T10, STK36 (Homo sapiens, UniProt Q9NRP7).
T10 construct: purchased DiscoveRx KINOMEscan (Ambit Biosciences)
Description: KINOMEscan panel screen. Format: binding. Conditions: read-out: Percent Control(%).

A further data set has as its target T11, YANK3 (Homo sapiens, UniProt Q86UX6).
T11 construct: purchased DiscoveRx KINOMEscan (Ambit Biosciences)
Briefly: KINOMEscan panel screen. It is filed as binding. The conditions noted are these: read-out: Percent Control(%).

The target of a further data set is T12, TBK1 (Homo sapiens, UniProt Q9UHD2).
T12 construct: purchased DiscoveRx KINOMEscan (Ambit Biosciences)
Description: KINOMEscan panel screen. Conditions: read-out: Percent Control(%). Format: binding.

Another data set deals with T13, EGFR(G719C) (Homo sapiens, UniProt P00533, G719C).
T13 construct: purchased DiscoveRx KINOMEscan (Ambit Biosciences)
Description: KINOMEscan panel screen. It is filed as binding. Conditions: read-out: Percent Control(%).

Another data set deals with FLT3-D835Y (Homo sapiens, UniProt P36888, D835Y). Description: KINOMEscan kinase binding assay (Kd). Further details: purchased Ambit Biosciences (KINOMEscan).
The target of the next data set is T14, NEK11 (Homo sapiens, UniProt Q8NG66).
T14 construct: purchased DiscoveRx KINOMEscan (Ambit Biosciences)
Description: KINOMEscan panel screen. Format: binding. The conditions noted are these: read-out: Percent Control(%).

The target of data set [1] is T15, EGFR(L747-S752del, P753S) (Homo sapiens, UniProt P00533, DEL747-752/P753S).
T15 construct: purchased DiscoveRx KINOMEscan (Ambit Biosciences)
Briefly: KINOMEscan panel screen. Format: binding. Conditions: read-out: Percent Control(%).

The next data set deals with T16, QSK (Homo sapiens, UniProt Q9Y2K2).
T16 construct: purchased DiscoveRx KINOMEscan (Ambit Biosciences)
Briefly: KINOMEscan panel screen. Format: binding. Conditions: read-out: Percent Control(%).

The next data set relates to MV4-11 tumor xenograft. Briefly: MV4-11 tumor xenograft model. Format: in vivo. The procedure:
Female 5- to 6-week-old NOD-SCID mice (Beijing HFK Bioscience) were housed in a sterile environment and fed a standard diet ad libitum. […] A 100- μl aliquot of the cell suspension was injected subcutaneously into the hind flank of each mouse to establish the xenograft model. […] The tumor volume was calculated using the following formula: volume = a × b^2/2 (a, long diameter; b, short diameter).
Paraffin-embedded tumors were subjected to immunostaining with Ki67 (Thermo Fisher), transferase-mediated dUTP nick-end labeling (TUNEL, Thermo Fisher). The representative images were taken on a LEICA DM 2500 microscope with a LEICA DFC425 C camera. Image acquisition software: LAS V3.7.
(a) MV4-11 cells (10^7 cells/mouse) were s.c. inoculated into NOD-SCID mice. […] The tumor volume and body weight were measured every 3 days during the treatment. The mean values ± SD are shown. […] Ki67 and TUNEL were detected with immunohistochemical. Representative images were shown. […] Tumors were harvested at the indicated time points, and the FLT3 signaling pathway was detected using western blot assays. The experiments were performed on three groups of mice. The results of the other two groups are given in Supplementary Data (Supplementary Fig. S8). […] The results shown in the histogram are the statistic data of three groups of mice. ns, not statistically significant, *P < 0.05, **P < 0.01. (e) The same harvested tumors were detected using real-time qPCR assays to test the expression of AXIN2 and NKD1 (the target genes of Wnt/β-catenin pathway). All results were normalized to the level of GAPDH (mean ± SEM from triplicate groups). ns, not statistically significant, *P < 0.05, **P < 0.01. (f) Kaplan-Meier plot of survival. […] The plasma concentrations were determined using liquid–liquid extraction followed by high-performance liquid chromatography (HPLC) with tandem mass spectrometric detection.

The target of a further data set is T17, MKK7 (Homo sapiens, UniProt O14733).
T17 construct: purchased DiscoveRx KINOMEscan (Ambit Biosciences)
Description: KINOMEscan panel screen. Format: binding. The conditions noted are these: read-out: Percent Control(%).

A further data set has as its target T18, PIK3C2B (Homo sapiens, UniProt O00750).
T18 construct: purchased DiscoveRx KINOMEscan (Ambit Biosciences)
Description: KINOMEscan panel screen. Format: binding. The conditions noted are these: read-out: Percent Control(%).

The target in a further data set is T19, LATS1 (Homo sapiens, UniProt O95835).
T19 construct: purchased DiscoveRx KINOMEscan (Ambit Biosciences)
Description: KINOMEscan panel screen. It is filed as binding. The conditions noted are these: read-out: Percent Control(%).

The target of the next data set is T20, RET(V804L) (Homo sapiens, UniProt P07949, V804L).
T20 construct: purchased DiscoveRx KINOMEscan (Ambit Biosciences)
Description: KINOMEscan panel screen. It is filed as binding. The conditions noted are these: read-out: Percent Control(%).

A further data set addresses T21, MLK3 (Homo sapiens, UniProt Q16584).
T21 construct: purchased DiscoveRx KINOMEscan (Ambit Biosciences)
Briefly: KINOMEscan panel screen. It is filed as binding. Conditions: read-out: Percent Control(%).

A further data set deals with T22, INSR (Homo sapiens, UniProt P06213).
T22 construct: purchased DiscoveRx KINOMEscan (Ambit Biosciences)
T22 sequence (P06213 28-1382): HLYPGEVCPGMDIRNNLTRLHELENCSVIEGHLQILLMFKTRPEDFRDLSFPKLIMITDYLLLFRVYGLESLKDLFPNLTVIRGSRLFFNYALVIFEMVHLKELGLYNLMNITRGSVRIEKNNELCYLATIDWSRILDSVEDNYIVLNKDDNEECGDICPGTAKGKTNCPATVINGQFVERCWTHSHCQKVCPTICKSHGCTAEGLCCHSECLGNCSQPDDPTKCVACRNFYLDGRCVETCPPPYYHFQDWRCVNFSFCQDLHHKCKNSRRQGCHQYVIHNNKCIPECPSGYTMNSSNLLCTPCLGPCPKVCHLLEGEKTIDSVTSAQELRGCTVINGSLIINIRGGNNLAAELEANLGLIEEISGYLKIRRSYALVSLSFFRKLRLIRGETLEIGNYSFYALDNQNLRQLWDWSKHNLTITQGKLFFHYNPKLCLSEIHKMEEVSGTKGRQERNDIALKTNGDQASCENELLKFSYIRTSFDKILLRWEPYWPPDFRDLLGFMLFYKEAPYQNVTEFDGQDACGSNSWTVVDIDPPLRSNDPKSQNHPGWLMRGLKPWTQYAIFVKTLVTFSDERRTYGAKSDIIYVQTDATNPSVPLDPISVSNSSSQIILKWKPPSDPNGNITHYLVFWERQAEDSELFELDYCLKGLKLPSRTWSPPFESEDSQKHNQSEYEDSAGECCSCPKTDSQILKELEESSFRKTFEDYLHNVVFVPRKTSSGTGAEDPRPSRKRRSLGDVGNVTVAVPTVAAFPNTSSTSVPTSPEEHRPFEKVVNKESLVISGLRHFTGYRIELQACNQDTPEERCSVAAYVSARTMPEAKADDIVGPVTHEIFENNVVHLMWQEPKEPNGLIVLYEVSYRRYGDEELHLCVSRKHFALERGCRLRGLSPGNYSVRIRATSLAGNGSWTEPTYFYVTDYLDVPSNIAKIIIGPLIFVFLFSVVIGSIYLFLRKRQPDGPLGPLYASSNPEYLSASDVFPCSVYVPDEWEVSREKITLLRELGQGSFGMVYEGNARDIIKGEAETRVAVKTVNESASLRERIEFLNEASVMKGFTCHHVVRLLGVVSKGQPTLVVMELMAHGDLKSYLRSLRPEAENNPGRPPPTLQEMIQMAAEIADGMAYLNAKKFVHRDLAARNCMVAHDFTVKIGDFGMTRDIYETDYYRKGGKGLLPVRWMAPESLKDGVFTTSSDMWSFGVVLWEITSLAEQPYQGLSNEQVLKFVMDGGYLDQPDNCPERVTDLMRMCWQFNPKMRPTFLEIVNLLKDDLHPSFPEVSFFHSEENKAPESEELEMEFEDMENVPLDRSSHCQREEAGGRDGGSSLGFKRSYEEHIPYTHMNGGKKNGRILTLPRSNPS
Description: KINOMEscan panel screen. Format: binding. The conditions noted are these: read-out: Percent Control(%).

The next data set deals with T23, ACVR2B (Homo sapiens, UniProt Q13705).
T23 construct: purchased DiscoveRx KINOMEscan (Ambit Biosciences)
Description: KINOMEscan panel screen. Format: binding. Conditions: read-out: Percent Control(%).

The next data set has as its target T24, CAMKK2 (Homo sapiens, UniProt Q96RR4).
T24 construct: purchased DiscoveRx KINOMEscan (Ambit Biosciences)
Description: KINOMEscan panel screen. Format: binding. Conditions: read-out: Percent Control(%).

The target of the next data set is T25, ERK2 (Homo sapiens, UniProt P28482).
T25 construct: purchased DiscoveRx KINOMEscan (Ambit Biosciences)
Briefly: KINOMEscan panel screen. Conditions: read-out: Percent Control(%). Format: binding.

T18 sequence (O00750 whole entry): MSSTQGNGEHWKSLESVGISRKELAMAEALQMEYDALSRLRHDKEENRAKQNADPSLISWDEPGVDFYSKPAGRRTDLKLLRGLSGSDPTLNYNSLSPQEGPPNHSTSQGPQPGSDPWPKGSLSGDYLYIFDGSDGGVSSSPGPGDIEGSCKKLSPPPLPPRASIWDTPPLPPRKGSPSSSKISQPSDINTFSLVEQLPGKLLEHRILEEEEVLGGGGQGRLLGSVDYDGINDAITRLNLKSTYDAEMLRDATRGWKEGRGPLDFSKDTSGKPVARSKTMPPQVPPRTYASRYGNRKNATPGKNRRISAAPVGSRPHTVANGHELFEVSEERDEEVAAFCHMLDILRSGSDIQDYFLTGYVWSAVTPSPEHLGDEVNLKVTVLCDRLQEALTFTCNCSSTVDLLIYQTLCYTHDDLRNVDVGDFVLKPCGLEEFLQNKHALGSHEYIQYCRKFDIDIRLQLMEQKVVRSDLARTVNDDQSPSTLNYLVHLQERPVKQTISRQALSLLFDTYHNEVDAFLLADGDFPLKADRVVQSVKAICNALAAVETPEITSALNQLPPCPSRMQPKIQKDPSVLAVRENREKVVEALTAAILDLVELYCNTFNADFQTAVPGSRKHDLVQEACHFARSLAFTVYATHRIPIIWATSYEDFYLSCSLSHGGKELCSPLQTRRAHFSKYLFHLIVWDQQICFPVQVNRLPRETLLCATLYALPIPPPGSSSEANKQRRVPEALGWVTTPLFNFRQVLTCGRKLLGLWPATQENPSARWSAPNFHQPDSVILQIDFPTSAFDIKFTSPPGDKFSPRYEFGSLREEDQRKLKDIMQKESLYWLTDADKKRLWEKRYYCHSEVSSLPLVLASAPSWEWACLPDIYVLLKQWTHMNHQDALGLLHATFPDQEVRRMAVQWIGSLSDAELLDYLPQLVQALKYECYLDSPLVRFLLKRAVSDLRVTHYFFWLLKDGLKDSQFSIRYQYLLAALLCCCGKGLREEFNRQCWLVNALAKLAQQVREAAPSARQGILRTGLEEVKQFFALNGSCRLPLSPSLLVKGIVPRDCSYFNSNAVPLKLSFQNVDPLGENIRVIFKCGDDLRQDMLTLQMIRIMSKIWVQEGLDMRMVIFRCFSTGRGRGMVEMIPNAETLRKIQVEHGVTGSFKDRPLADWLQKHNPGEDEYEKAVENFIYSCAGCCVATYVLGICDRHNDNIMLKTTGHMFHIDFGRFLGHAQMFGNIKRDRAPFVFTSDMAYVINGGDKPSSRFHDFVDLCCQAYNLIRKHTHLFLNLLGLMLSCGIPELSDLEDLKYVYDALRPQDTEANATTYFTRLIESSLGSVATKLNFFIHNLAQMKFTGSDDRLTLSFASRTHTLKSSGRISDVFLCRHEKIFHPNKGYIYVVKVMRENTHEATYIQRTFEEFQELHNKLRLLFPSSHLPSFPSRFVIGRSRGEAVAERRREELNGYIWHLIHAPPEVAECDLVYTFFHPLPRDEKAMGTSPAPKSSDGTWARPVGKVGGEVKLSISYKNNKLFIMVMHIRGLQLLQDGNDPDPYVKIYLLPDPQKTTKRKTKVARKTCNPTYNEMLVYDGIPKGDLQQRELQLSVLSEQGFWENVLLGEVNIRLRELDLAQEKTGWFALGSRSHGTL

`O=C(Nc1ccc(Oc2ncnc3[nH]ncc23)cc1)Nc1ccc(Cl)c(C(F)(F)F)c1` [Compound 1, 1-(4-(1H-pyrazolo[3,4-d]pyrimidin-4-yloxy)phenyl)-3-(4-chloro-3-(trifluoromethyl)phenyl)urea]: the IC50 (commonly the concentration that inhibits the measured activity by half) on PAK4 is above 10000 nM.

As to `CC(C)(C)c1cc(NC(=O)Nc2ccc(Oc3ncnc4[nH]ncc34)c(F)c2)no1` [SKLB-677, 1-(4-(1H-pyrazolo[3,4-d]pyrimidin-4-yloxy)-3-fluorophenyl)-3-(5-tert-butylisoxazol-3-yl)urea], the remaining binding at 10 µM on TRKA amounted to 7.8%; at PRKR it was 57%; on CDK11, 0.1%; on BUB1 it was 66%; on PIK3CG, 100%; on EPHB6 it was 2%. Moreover, the remaining binding at 10 µM on ARK5 came out at 47%; on STK36 it was 97%; on YANK3, 97%; at TBK1, 70%; at EGFR(G719C), 37%; on NEK11, 96%. The remaining binding at 10 µM was 38% in data set [1]; 91% on QSK; 77% at MKK7; 100% on PIK3C2B; 47% on LATS1; 0% at RET(V804L). In addition, the remaining binding at 10 µM at MLK3 came out at 24%; on INSR it was 87%; at ACVR2B, 81%; on CAMKK2, 30%; at ERK2, 100%. Also, the values for the Kd on PDGFRα, on BTK and at FLT3-D835Y were 12 nM, above 10000 nM and 1.3 nM, respectively. The compound further registered a tumor inhibition rate in the data set on MV4-11 tumor xenograft (1 mg/kg/d orally once per day for 21 days) of 66%. Also, the tumor response result in the data set on MV4-11 tumor xenograft (3 mg/kg/d orally for 8 days) and in the data set with MV4-11 tumor xenograft (10 mg/kg/d orally for 3 days) was “complete tumor regression” throughout. For the same compound, the “toxicity in xenograft mice” value with MV4-11 tumor xenograft (10 mg/kg/d or 3 mg/kg/d orally) is on record as “without obvious toxicity”. In the data set on MV4-11 tumor xenograft (immunohistochemistry), the “Ki67-positive cells in tumors compared with control group” value is “evidently fewer”. Also, in the data set on MV4-11 tumor xenograft (immunohistochemistry), the “percentage of TUNEL-positive cells in tumors compared with vehicle” value is listed as “increased”.
